Measurements: patent US20220054532A1, “VETERINARY COMPOSITIONS AND METHODS OF USE THEREFOR” (priority 2019, published 2022)

What was measured:
Type in all cases: in vivo
[1] = test system: dogs suffering from heart failure; experiment: Example 7: heart failure in dogs; conditions: heart failure scale 1 (few to no clinical signs) to 10 (severe); for Initial Score: day 0; for Final Score: day 90, BID
From the text: This example examines the ability of embodiments of the invention versus enalapril to treat heart failure.
The patient group is twenty-four dogs suffering from heart failure.
The patient group is broken into six groups of four dogs. The first group receives enalapril as the sole active agent; the second group receives a composition comprising enalapril and Lasix®; the third group receives a composition comprising HMW HA as the sole active agent; the fourth group receives a composition comprising CBD as the sole active agent; the fifth group receives a composition comprising HMW HA and CBD as the active agents; and the sixth group receives a composition comprising HMW HA, CBD, liposomal CoQ10, hawthorn berry, and ginko biloba as the active agents.
Each composition is administered for a period of ninety (90) days, BID. Each animal is evaluated on days 0 (“Initial Score”), 30, 60, and 90 (“Final Score”) of treatment. The results are averaged and characterized on a scale of 1 (few to no clinical signs of heart failure) to 10 (severe heart failure).
The following canine scores are observed and the results depicted in FIG. 7: […]

[2] = test system: dogs suffering behavior aberrations and/or anxiety; experiment: Example 13: behavior aberrations and anxiety, C-BARQ (canine, CBD Complex); conditions: C-BARQ day 0 vs 60, SID, 0 (no improvement) to 3 (marked improvement)
From the text: This example examines the ability of embodiments of the invention versus Clomicalm® to reduce behavior aberrations and anxiety.
The first patient group is twenty dogs suffering behavior aberrations and/or anxiety, as determined by the canine behavioral assessment and research questionnaire (“C-BARQ”). […] The second patient group is twenty cats suffering behavior aberrations and/or anxiety, as determined by the feline behavioral assessment and research questionnaire (“Fe-BARQ”).
Each group is broken into five groups of four animals. The first group receives Clomicalm® as the sole active agent; the second group receives a composition comprising HMW HA as the sole active agent; the third group receives a composition comprising CBD as the sole active agent; the fourth group receives a composition comprising HMW HA and CBD Complex as the active agents; and the fifth group receives a composition comprising HMW HA, CBD Complex, valerian root, and scutillaria as the active agents.
Each composition is administered for a period of sixty (60) days, once a day (“SID”). Owners complete the species-appropriate C-BARQ or Fe-BARQ on days 0 and 60 of treatment. The results from the overall questionnaire are averaged and characterized as no improvement (score of 0), mild improvement (score of 1), moderate improvement (score of 2), or marked improvement (score of 3).

[3] = test system: dogs suffering from osteoarthritis; experiment: Example 1: pain relief and side effects in canine osteoarthritis; conditions: dogs with osteoarthritis, 4 weeks of administration, group average
From the text: This example examines the ability of various compositions to minimize pain and examines the level of adverse side effects of each composition.
At the outset of the study, participants receive a full physical examination, including weight measurement, thigh circumference, and CBC/blood chemistries. Because osteoarthritis is not only a disease of pain, but one characterized by behavioral, appetite, anxiety/aggression, family socialization, and sleep aberrations, the pet's owners are familiarized with the pain scale (canine orthopedic index) and additional behavioral assessment log.
The patient group is twenty-four dogs suffering from osteoarthritis, broken into eight groups of three dogs. The first group receives a control composition with no active agent; the second group receives a composition comprising HA as the sole active agent; the third group receives a composition comprising HMW HA as the sole active agent; the fourth group receives a composition comprising CBD as the sole active agent; the fifth group receives a composition comprising HA and CBD as the active agents; the sixth group receives a composition comprising HMW HA and CBD as the active agents; the seventh group receives a composition comprising Rimadyl as the active agent; and the eighth group receives a composition comprising Meloxicam as the active agent.
Each composition is administered for a period of four (4) weeks. The owner completes the electronic log questionnaire each week. At the end of the 4-week study, participants have another full physical examination, including weight measurement, thigh circumference, and CBC/blood chemistries, with an exit interview of the owners to gain final impressions.
Each group is evaluated for pain scores and the scores averaged. The following scores are observed and the results depicted in FIG. 1: […]

[4] = test system: dogs with a history of severe, chronic skin issues, atopy, pruritis, yeast overgrowth, and/or infection; experiment: Example 8: skin conditions (itch score) and side effects in dogs; set-up: Average Side Effect Score: scale not given here; conditions: for Average Side Effect Score: dogs with skin conditions, 60 days BID; for Initial Itch Score / Final Itch Score: itch scale 0 (no itching) to 10 (extremely severe); for Initial Itch Score: day 0; for Final Itch Score: day 60, BID
From the text: This example examines the ability of embodiments of the invention versus prednisone to treat skin conditions.
The patient group is twenty-four dogs with a history of severe, chronic skin issues, atopy, pruritis, yeast overgrowth, and/or infection, as diagnosed by their referring veterinarian. The patient group is broken into six groups of four animals. The first group receives prednisone as the sole active agent; the second group receives a composition comprising prednisone and HMW HA as the active agents; the third group receives a composition comprising HMW HA as the sole active agent; the fourth group receives a composition comprising CBD as the sole active agent; the fifth group receives a composition comprising HMW HA and CBD as the active agents; and the sixth group receives a composition comprising HMW HA, CBD, quercetin, and nettles as the active agents.
Each composition is administered for a period of sixty (60) days, BID. Each dog is evaluated on days 0 (“Initial Score”), 20, 40, and 60 (“Final Score”) of treatment. The results are averaged and characterized on a scale of 0 (no itching—normal dog), 2 (very mild itching—only occasional episodes), 4 (mild itching), 6 (moderate itching—regular episodes), 8 (severe itching—prolonged episodes), to 10 (extremely severe itching—almost continuous).
The following scores are observed and the results depicted in FIG. 8: […]

[5] = test system: cats suffering from joint inflammation; experiment: Example 12: joint inflammation, thermal imaging (feline, CBD Complex); conditions: over the inflamed joint, 60 days BID
From the text: This example examines the ability of embodiments of the invention versus Cosequin® to treat joint inflammation.
The first patient group is twenty dogs suffering from joint inflammation. The second patient group is twenty cats suffering from joint inflammation. The third patient group is twenty horses suffering from joint inflammation. Each patient group is broken into five groups of four animals. The first groups receive Cosequin® as the sole active agent; the second groups receive a composition comprising HMW HA as the sole active agent; the third groups receive a composition comprising CBD as the sole active agent; the fourth groups receive a composition comprising HMW HA and CBD Complex as the active agents; and the fifth groups receive a composition comprising HMW HA, CBD Complex, Boswellia, and superoxide dismutase (“SOD”) as the active agents.
Each composition is administered for a period of sixty (60) days, BID. Efficacy is determined by a decrease in body temperature over the inflamed joint, as measured by thermal imaging (e.g., via Digatherm device). Thermal imaging is performed on days 0 (“Initial Score”), 15, 30, 45, and 60 (“Final Score”) of treatment.
The following feline scores are observed and the results depicted in FIG. 12b: […]

## C=C(C)[C@@H]1CCC(C)=C[C@H]1c1c(O)cc(CCCCC)cc1O [CBD Alone, 2-[(1R,6R)-3-methyl-6-prop-1-en-2-ylcyclohex-2-en-1-yl]-5-pentylbenzene-1,3-diol]
[1]
  Initial Score: 8
  Final Score: 4
[2]
  Improvement Score: 2
[3]
  Average Pain Score: 19
  Average Side Effect Score: 0.5
[3]; listed as CBD alone
  Average Pain Score: not especially effective in reducing pain
  Average Side Effect Score: even lower degree of adverse side effects
[4]
  Average Side Effect Score: .5
  Initial Itch Score: 9
  Final Itch Score: 5
[5]
  Reduction in Temperature (° F.): 2.0 ° F.

## hyaluronic acid [HMW HA Alone]
[1]
  Initial Score: 8
  Final Score: 4
[2]
  Improvement Score: 1
[3]
  Average Pain Score: 16
  Average Side Effect Score: 4
[3]; listed as HMW HA alone
  Average Pain Score: only slightly reduce pain
  Average Side Effect Score: low degree of adverse side effects
[4]
  Average Side Effect Score: 4
  Initial Itch Score: 9
  Final Itch Score: 7
[5]
  Reduction in Temperature (° F.): 2.3 ° F.
